Test results from patent US11813245B2, “Sulcardine administration for treatment of acute atrial fibrillation” (HUYABIO International, LLC, priority 2020, dated 2023).
Where a name gives a salt, the structure may show the parent alone. Read-outs that look alike come from different tables or passages of the source. One block for each compound: values may come before it.

Experiments:
healthy subjects [1] = experiment: Phase 1 single ascending dose trial of intravenous HBI-3000: safety and tolerability; type: in vivo, human; details: single ascending iv doses 20-600 mg
Method: (§1) HBI-3000 (sulcardine sulfate) was administered to human subjects according to the protocol provided in (Clinical Trials.gov Identifier: NCT03397641. That protocol is incorporated herein by reference in its entirety.
(§2) Objective: Provided herein are the safety, tolerability, pharmacokinetics and electrocardiogram (ECG) results of a Phase 1 single ascending dose trial of intravenous (IV) HBI-3000 in healthy subjects.
(§3) Methods: […] subjects were randomized to 6 cohorts of 8 subjects to receive 1 of 5 single ascending iv doses (Table 2) of HBI-3000 or placebo (6:2), with 2 cohorts receiving the 600 mg dose. Doses of HBI-3000 ranged from 20 mg (Cohort A), 60 mg (Cohort B), 180 mg (Cohort C), 360 mg (Cohort D), to 600 mg (Cohort E and F). Drug was a lyophilized powder, reconstituted to […] then diluted in saline for delivery via intravenous infusion as a 50 mL solution over 30 minutes.

INa-Peak = INa-Peak (Homo sapiens, UniProt Q14524); details: background statement; cited from earlier work
Chain of INa-Peak (Q14524 whole entry): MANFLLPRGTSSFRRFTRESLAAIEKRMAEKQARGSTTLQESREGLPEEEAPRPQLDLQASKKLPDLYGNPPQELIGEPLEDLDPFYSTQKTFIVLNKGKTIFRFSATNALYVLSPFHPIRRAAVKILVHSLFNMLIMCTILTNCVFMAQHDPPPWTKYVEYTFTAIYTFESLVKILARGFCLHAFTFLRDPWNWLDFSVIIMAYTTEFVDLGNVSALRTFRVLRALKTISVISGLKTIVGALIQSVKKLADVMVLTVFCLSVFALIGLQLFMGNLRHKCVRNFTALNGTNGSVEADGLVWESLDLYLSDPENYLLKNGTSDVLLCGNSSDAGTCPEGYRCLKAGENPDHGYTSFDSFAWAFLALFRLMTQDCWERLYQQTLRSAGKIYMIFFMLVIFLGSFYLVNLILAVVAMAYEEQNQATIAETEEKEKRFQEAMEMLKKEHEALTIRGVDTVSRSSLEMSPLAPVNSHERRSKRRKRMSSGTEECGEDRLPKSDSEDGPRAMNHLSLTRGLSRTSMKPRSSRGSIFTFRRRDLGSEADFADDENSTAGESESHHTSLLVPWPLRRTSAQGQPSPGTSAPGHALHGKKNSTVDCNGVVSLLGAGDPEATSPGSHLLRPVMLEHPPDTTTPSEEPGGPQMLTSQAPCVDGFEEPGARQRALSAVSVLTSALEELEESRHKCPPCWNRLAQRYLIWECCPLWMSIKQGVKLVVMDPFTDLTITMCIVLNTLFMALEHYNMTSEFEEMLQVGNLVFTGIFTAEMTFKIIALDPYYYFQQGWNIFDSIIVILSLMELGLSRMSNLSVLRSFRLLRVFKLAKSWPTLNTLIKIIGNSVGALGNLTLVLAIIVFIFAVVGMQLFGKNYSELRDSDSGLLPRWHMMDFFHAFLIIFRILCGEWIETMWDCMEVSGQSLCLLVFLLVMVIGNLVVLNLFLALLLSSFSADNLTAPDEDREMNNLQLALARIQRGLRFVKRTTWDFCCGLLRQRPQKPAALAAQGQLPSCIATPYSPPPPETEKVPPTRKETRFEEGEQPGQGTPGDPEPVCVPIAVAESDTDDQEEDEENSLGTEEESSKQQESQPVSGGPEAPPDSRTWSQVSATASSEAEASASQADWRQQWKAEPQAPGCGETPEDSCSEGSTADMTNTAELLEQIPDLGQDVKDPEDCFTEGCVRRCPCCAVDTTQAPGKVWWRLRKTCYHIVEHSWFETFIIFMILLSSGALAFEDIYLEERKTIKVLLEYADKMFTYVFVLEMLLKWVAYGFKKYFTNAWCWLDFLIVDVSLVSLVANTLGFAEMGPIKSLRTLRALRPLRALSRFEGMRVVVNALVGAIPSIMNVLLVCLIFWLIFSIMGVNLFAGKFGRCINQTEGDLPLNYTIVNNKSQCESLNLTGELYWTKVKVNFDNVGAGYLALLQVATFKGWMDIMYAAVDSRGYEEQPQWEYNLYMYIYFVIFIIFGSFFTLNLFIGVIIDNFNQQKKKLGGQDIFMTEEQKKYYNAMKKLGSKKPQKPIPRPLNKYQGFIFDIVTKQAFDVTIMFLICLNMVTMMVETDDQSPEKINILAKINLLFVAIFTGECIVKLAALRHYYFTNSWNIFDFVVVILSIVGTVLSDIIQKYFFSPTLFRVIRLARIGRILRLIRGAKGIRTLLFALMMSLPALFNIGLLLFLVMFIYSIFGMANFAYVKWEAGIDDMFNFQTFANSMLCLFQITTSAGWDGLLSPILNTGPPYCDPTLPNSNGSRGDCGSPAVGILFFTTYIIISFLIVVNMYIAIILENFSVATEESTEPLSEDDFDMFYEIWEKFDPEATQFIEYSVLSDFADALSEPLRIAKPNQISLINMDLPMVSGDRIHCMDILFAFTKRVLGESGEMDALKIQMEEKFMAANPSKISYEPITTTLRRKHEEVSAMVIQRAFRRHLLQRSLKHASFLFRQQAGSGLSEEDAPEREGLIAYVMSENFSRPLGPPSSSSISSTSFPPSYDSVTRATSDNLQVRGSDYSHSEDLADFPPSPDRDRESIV

INa-Late = INa-Late (Homo sapiens, UniProt Q14524); details: background statement; cited from earlier work
Chain of INa-Late (Q14524 whole entry): as above

[2] = Phase 1 single ascending dose trial of intravenous HBI-3000: pharmacokinetics; type: in vivo; details: human, plasma
Method: as §1, §2, §3
In some instances, the patient is administered 350 mg of HBI-3000.

IKr = IKr (Homo sapiens, UniProt Q12809); details: background statement; cited from earlier work
ICa,L = ICa,L (Homo sapiens, UniProt Q13936); details: background statement; cited from earlier work
healthy subjects [3] = experiment: Phase 1 single ascending dose trial of intravenous HBI-3000: continuous 12-lead Holter ECG, baseline and placebo subtracted (ΔΔ) ECG intervals at Cmax; type: in vivo, human
Method: as §1, §2, §3
Continuous 12-lead Holter ECG data were recorded at baseline and 11 time points thereafter. Mean baseline and placebo subtracted (ΔΔ) ECG intervals (QTcF, HR, PR, QRS, and P-wave duration [PDur]) and T-wave segments (J to T peak [JTp] and T peak to T end [TpTe]) were calculated at Cmax for each dose.
Table 2 summarizes ECG data at Cmax for each dose, as predicted by mixed-effects modeling. […] The increases in QRS and PDur are consistent with block of INa-Peak. The increase in the PR interval is consistent with the increase in PDur and with both INa-Peak and ICa,L inhibition. Prolongation of TpTe is consistent with IKr block, which would be expected, in isolation, to lengthen JTp as well. The observed dose-related reduction of JTp is likely due to counteraction of the effect of HBI-3000 on IKr through its inhibition of both INa-Late, and ICa,L.

[4] = Chen et al.; cited from earlier work
[5] = 20 mg single iv infusion over 30 min, healthy subjects, N=6
[6] = 60 mg single iv infusion over 30 min, healthy subjects, N=6
[7] = 180 mg single iv infusion over 30 min, healthy subjects, N=6
[8] = 360 mg single iv infusion over 30 min, healthy subjects, N=5
[9] = 600 mg single iv infusion over 30 min, healthy subjects, N=12
[10] = 20 mg single iv infusion over 30 min, at Cmax 135 ng/ml, N=6, concentration-effect regression model
[11] = 60 mg single iv infusion over 30 min, at Cmax 378 ng/ml, N=6, concentration-effect regression model
[12] = 180 mg single iv infusion over 30 min, at Cmax 1530 ng/ml, N=6, concentration-effect regression model
[13] = 360 mg single iv infusion over 30 min, at Cmax 3120 ng/ml, N=5, concentration-effect regression model
[14] = 600 mg single iv infusion over 30 min, at Cmax 5280 ng/ml, N=12, concentration-effect regression model
[15] = concentration-effect regression model, iv doses 20-600 mg

AUC(0-t) ([2]; intravenous, 350 mg, read-out: AUC (0-24)): 2.88 µg·h/mL
AUC(0-t) ([2]; intravenous, 350 mg, read-out: AUC (0-last)): 3.37 µg·h/mL
Cmax ([2]; intravenous, 350 mg, read-out: Cmax): 3.08 µg/mL
AUC(0-inf) ([2]; intravenous, 350 mg dose): 3.72 µg·h/mL
half-life ([2]; intravenous, 350 mg dose): 43 h
Tmax ([2]; intravenous, 350 mg dose, read-out: Tmax): 27 min
Cmax ([2]; iv, 20 mg, 20 mg single iv infusion over 30 min, N=6, as used for ΔΔECG model, read-out: Cmax (Table 2)): 0.135 µg/mL
AUC(0-t) ([2]; iv, 20 mg, 20 mg single iv infusion over 30 min, healthy subjects, N=6, read-out: AUC (0-24)): 0.0897 µg·h/mL
AUC(0-t) ([2]; iv, 20 mg, 20 mg single iv infusion over 30 min, healthy subjects, N=6, read-out: AUC (0-last)): 0.0862 µg·h/mL
Cmax ([2]; iv, 20 mg, 20 mg single iv infusion over 30 min, healthy subjects, N=6, read-out: Cmax): 0.131 µg/mL
Cmax ([2]; iv, 60 mg, 60 mg single iv infusion over 30 min, N=6, as used for ΔΔECG model, read-out: Cmax (Table 2)): 0.378 µg/mL
AUC(0-t) ([2]; iv, 60 mg, 60 mg single iv infusion over 30 min, healthy subjects, N=6, read-out: AUC (0-24)): 0.299 µg·h/mL
AUC(0-t) ([2]; iv, 60 mg, 60 mg single iv infusion over 30 min, healthy subjects, N=6, read-out: AUC (0-last)): 0.306 µg·h/mL
Cmax ([2]; iv, 60 mg, 60 mg single iv infusion over 30 min, healthy subjects, N=6, read-out: Cmax): 0.369 µg/mL
Cmax ([2]; iv, 180 mg, 180 mg single iv infusion over 30 min, N=6, as used for ΔΔECG model, read-out: Cmax (Table 2)): 1.53 µg/mL
AUC(0-t) ([2]; iv, 180 mg, 180 mg single iv infusion over 30 min, healthy subjects, N=6, read-out: AUC (0-24)): 1.27 µg·h/mL
AUC(0-t) ([2]; iv, 180 mg, 180 mg single iv infusion over 30 min, healthy subjects, N=6, read-out: AUC (0-last)): 1.55 µg·h/mL
Cmax ([2]; iv, 180 mg, 180 mg single iv infusion over 30 min, healthy subjects, N=6, read-out: Cmax): 1.43 µg/mL
Cmax ([2]; iv, 360 mg, 360 mg single iv infusion over 30 min, N=5, as used for ΔΔECG model, read-out: Cmax (Table 2)): 3.12 µg/mL
AUC(0-t) ([2]; iv, 360 mg, 360 mg single iv infusion over 30 min, healthy subjects, N=5, read-out: AUC (0-24)): 2.96 µg·h/mL
AUC(0-t) ([2]; iv, 360 mg, 360 mg single iv infusion over 30 min, healthy subjects, N=5, read-out: AUC (0-last)): 3.47 µg·h/mL
Cmax ([2]; iv, 360 mg, 360 mg single iv infusion over 30 min, healthy subjects, N=5, read-out: Cmax): 3.17 µg/mL
Cmax ([2]; iv, 600 mg, 600 mg single iv infusion over 30 min, N=12, as used for ΔΔECG model, read-out: Cmax (Table 2)): 5.28 µg/mL
AUC(0-t) ([2]; iv, 600 mg, 600 mg single iv infusion over 30 min, healthy subjects, N=12, read-out: AUC (0-24)): 5.81 µg·h/mL
AUC(0-t) ([2]; iv, 600 mg, 600 mg single iv infusion over 30 min, healthy subjects, N=12, read-out: AUC (0-last)): 6.64 µg·h/mL
Cmax ([2]; iv, 600 mg, 600 mg single iv infusion over 30 min, healthy subjects, N=12, read-out: Cmax): 5.58 µg/mL
AUC(0-inf) [2, 5]: 0.175 µg·h/mL
half-life [2, 5]: 0.62 h
Tmax ([2]; 20 mg single iv infusion over 30 min, healthy subjects, N=6, read-out: Tmax Mean): 25.2 min
AUC(0-inf) [2, 6]: 0.312 µg·h/mL
half-life [2, 6]: 9.16 h
Tmax ([2]; 60 mg single iv infusion over 30 min, healthy subjects, N=6, read-out: Tmax Mean): 22.8 min
AUC(0-inf) [2, 7]: 2.05 µg·h/mL
half-life [2, 7]: 54.8 h
Tmax ([2]; 180 mg single iv infusion over 30 min, healthy subjects, N=6, read-out: Tmax Mean): 27.6 min
AUC(0-inf) [2, 8]: 3.83 µg·h/mL
half-life [2, 8]: 43.7 h
Tmax ([2]; 360 mg single iv infusion over 30 min, healthy subjects, N=5, read-out: Tmax Mean): 27 min
AUC(0-inf) [2, 9]: 7.58 µg·h/mL
half-life [2, 9]: 41.1 h
Tmax ([2]; 600 mg single iv infusion over 30 min, healthy subjects, N=12, read-out: Tmax Mean): 27.6 min
SMILES: COc1ccc(S(=O)(=O)NCc2cc(CN3CCCC3)c(O)c(CN3CCCC3)c2)cc1 [HBI-3000, sulcardine sulfate]
safety, tolerability (healthy subjects [1]): well tolerated with no dose limiting adverse events or arrhythmias observed
in vitro inhibitory effects on INa-Peak (INa-Peak): relatively balanced in vitro inhibitory effects
in vitro inhibitory effects on INa-Late (INa-Late): relatively balanced in vitro inhibitory effects
in vitro inhibitory effects on IKr (IKr): relatively balanced in vitro inhibitory effects
in vitro inhibitory effects on ICa,L (ICa,L): relatively balanced in vitro inhibitory effects
ΔΔHR (healthy subjects [3]; [10]): 1.74 bpm
ΔΔJTp (healthy subjects [3]; [10]): -2.87 ms
ΔΔPDur (healthy subjects [3]; [10]): 3.17 ms
ΔΔPR (healthy subjects [3]; [10]): 5.08 ms
ΔΔQRS (healthy subjects [3]; [10]): -0.08 ms
ΔΔQTcF (healthy subjects [3]; [10]): 1.40 ms
ΔΔTpTe (healthy subjects [3]; [10]): 1.95 ms
ΔΔHR (healthy subjects [3]; [11]): 2.21 bpm
ΔΔJTp (healthy subjects [3]; [11]): -5.28 ms
ΔΔPDur (healthy subjects [3]; [11]): 3.71 ms
ΔΔPR (healthy subjects [3]; [11]): 6.06 ms
ΔΔQRS (healthy subjects [3]; [11]): 0.54 ms
ΔΔQTcF (healthy subjects [3]; [11]): 2.35 ms
ΔΔTpTe (healthy subjects [3]; [11]): 2.20 ms
ΔΔHR (healthy subjects [3]; [12]): 4.44 bpm
ΔΔJTp (healthy subjects [3]; [12]): -15.09 ms
ΔΔPDur (healthy subjects [3]; [12]): 6.24 ms
ΔΔPR (healthy subjects [3]; [12]): 10.73 ms
ΔΔQRS (healthy subjects [3]; [12]): 3.50 ms
ΔΔQTcF (healthy subjects [3]; [12]): 6.89 ms
ΔΔTpTe (healthy subjects [3]; [12]): 3.37 ms
ΔΔHR (healthy subjects [3]; [13]): 7.70 bpm
ΔΔJTp (healthy subjects [3]; [13]): -24.60 ms
ΔΔPDur (healthy subjects [3]; [13]): 9.93 ms
ΔΔPR (healthy subjects [3]; [13]): 17.53 ms
ΔΔQRS (healthy subjects [3]; [13]): 7.81 ms
ΔΔQTcF (healthy subjects [3]; [13]): 13.50 ms
ΔΔTpTe (healthy subjects [3]; [13]): 5.07 ms
ΔΔHR (healthy subjects [3]; [14]): 12.75 bpm
ΔΔJTp (healthy subjects [3]; [14]): -28.10 ms
ΔΔPDur (healthy subjects [3]; [14]): 15.67 ms
ΔΔPR (healthy subjects [3]; [14]): 28.10 ms
ΔΔQRS (healthy subjects [3]; [14]): 14.50 ms
ΔΔQTcF (healthy subjects [3]; [14]): 23.77 ms
ΔΔTpTe (healthy subjects [3]; [14]): 7.72 ms
onset and loss of pharmacodynamic effect (healthy subjects [3]; about 400 mg to about 800 mg according to the protocol, human subjects): quickly effective and then quickly loses its effect
Slope, ΔΔHR (healthy subjects [3]; [15]): 0.0019
Slope, ΔΔJTp (healthy subjects [3]; [15]): −0.0000
Slope, ΔΔPDur (healthy subjects [3]; [15]): 0.0022
Slope, ΔΔPR (healthy subjects [3]; [15]): 0.0040
Slope, ΔΔQRS (healthy subjects [3]; [15]): 0.0026
Slope, ΔΔQTcF (healthy subjects [3]; [15]): 0.0039
Slope, ΔΔTpTe (healthy subjects [3]; [15]): 0.0010
changes in ECG parameters (healthy subjects [3]; single ascending iv doses 20-600 mg, healthy subjects): dose-proportional changes in all ECG parameters

SMILES: COc1ccc(S(=O)(=O)NCc2cc(CN3CCCC3)c(O)c(CN3CCCC3)c2)cc1 [sulcardine, N-[4-hydroxy-3,5-bis(1-pyrrolidinylmethyl)benzyl]-4-methoxybenzenesulfonamide]
expected half-life for oral administration [4]: about 16 hours
